Data on eight compounds can be found in patent US10213433B2 (AbbVie Inc., priority 2010, dated 2019).

This series in a line: log D at pH 7.4 by an HPLC method. It is filed as physicochemical. The text has this: Table 2 below presents data for log D (a parameter related to lipophilicity) at pH 7.4, as determined by an HPLC method, for representative compounds.
The term chromatographic logD denotes a lipophilicity value derived from retention on a column. Regarding `CN1CCN(Nc2ccc(S(=O)(=O)NC(=O)c3ccc(N4CCN(CC5=C(c6ccc(Cl)cc6)CC(C)(C)CC5)CC4)cc3Oc3cnc4[nH]ccc4c3)cc2[N+](=O)[O-])CC1` [Compound 6, 4-(4-{[2-(4-chlorophenyl)-4,4-dimethylcyclohex-1-en-1-yl]methyl}piperazin-1-yl)-N-({4-[(4-methylpiperazin-1-yl)amino]-3-nitrophenyl}sulfonyl)-2-(1H-pyrrolo[2,3-b]pyridin-5-yloxy)benzamide], the chromatographic logD came to 5.74.
The compound `CC1(C)CCC(CN2CCN(c3ccc(C(=O)NS(=O)(=O)c4ccc(N[C@H]5CC[C@H](N6CCOCC6)CC5)c([N+](=O)[O-])c4)c(Oc4cnc5[nH]ccc5c4)c3)CC2)=C(c2ccc(Cl)cc2)C1` [Compound 9, trans-4-(4-{[2-(4-chlorophenyl)-4,4-dimethylcyclohex-1-en-1-yl]methyl}piperazin-1-yl)-N-({4-[(4-morpholin-4-ylcyclohexyl)amino]-3-nitrophenyl}sulfonyl)-2-(1H-pyrrolo[2,3-b]pyridin-5-yloxy)benzamide] gave a chromatographic logD of 5.71.
For `CC1(C)CCC(CN2CCN(c3ccc(C(=O)NS(=O)(=O)c4ccc(NCC5CCOCC5)c([N+](=O)[O-])c4)c(Oc4ccc5[nH]ccc5c4)c3)CC2)=C(c2ccc(Cl)cc2)C1` [Compound 18, 4-(4-{[2-(4-chlorophenyl)-4,4-dimethylcyclohex-1-en-1-yl]methyl}piperazin-1-yl)-2-(1H-indol-5-yloxy)-N-({3-nitro-4-[(tetrahydro-2H-pyran-4-ylmethyl)amino]phenyl}sulfonyl)benzamide], the chromatographic logD is 6.35.
For `COCCNc1ccc(S(=O)(=O)NC(=O)c2ccc(N3CCN(CC4=C(c5ccc(Cl)cc5)CC(C)(C)CC4)CC3)cc2Oc2ccc3[nH]ccc3c2)cc1[N+](=O)[O-]` [Compound 20, 4-(4-{[2-(4-chlorophenyl)-4,4-dimethylcyclohex-1-en-1-yl]methyl}piperazin-1-yl)-2-(1H-indol-5-yloxy)-N-({4-[(2-methoxyethyl)amino]-3-nitrophenyl}sulfonyl)benzamide] the value was 6.24.
On to `O=C(NS(=O)(=O)c1ccc(NCC2CCOCC2)c([N+](=O)[O-])c1)c1ccc(N2CCN(Cc3ccccc3-c3ccc(Cl)cc3)CC2)cc1Oc1ccc2[nH]ccc2c1` [Compound 87, 4-{4-[(4′-chloro-1,1′-biphenyl-2-yl)methyl]piperazin-1-yl}-2-(1H-indol-5-yloxy)-N-({3-nitro-4-[(tetrahydro-2H-pyran-4-ylmethyl)amino]phenyl}sulfonyl)benzamide], for which the chromatographic logD came to 5.86.
In turn, `CC1(C)CCC(CN2CCN(c3ccc(C(=O)NS(=O)(=O)c4ccc(NC5CCN(C6CCOCC6)CC5)c([N+](=O)[O-])c4)c(Oc4ccc5[nH]ccc5c4)c3)CC2)=C(c2ccc(Cl)cc2)C1` [Compound 89, 4-(4-{[2-(4-chlorophenyl)-4,4-dimethylcyclohex-1-en-1-yl]methyl}piperazin-1-yl)-2-(1H-indol-5-yloxy)-N-({3-nitro-4-[(1-tetrahydro-2H-pyran-4-ylpiperidin-4-yl)amino]phenyl}sulfonyl)benzamide] displayed a chromatographic logD of 6.21.
`CN1CCC(Nc2ccc(S(=O)(=O)NC(=O)c3ccc(N4CCN(CC5=C(c6ccc(Cl)cc6)CC(C)(C)CC5)CC4)cc3Oc3ccc4[nH]ccc4c3)cc2[N+](=O)[O-])CC1` [Compound 90, 4-(4-{[2-(4-chlorophenyl)-4,4-dimethylcyclohex-1-en-1-yl]methyl}piperazin-1-yl)-2-(1H-indol-5-yloxy)-N-({4-[(1-methylpiperidin-4-yl)amino]-3-nitrophenyl}sulfonyl)benzamide] showed a chromatographic logD of 6.69.
`CN1CCN(Nc2ccc(S(=O)(=O)NC(=O)c3ccc(N4CCN(CC5=C(c6ccc(Cl)cc6)CC(C)(C)CC5)CC4)cc3Oc3ccc4[nH]ccc4c3)cc2[N+](=O)[O-])CC1` [Compound 91, 4-(4-{[2-(4-chlorophenyl)-4,4-dimethylcyclohex-1-en-1-yl]methyl}piperazin-1-yl)-2-(1H-indol-5-yloxy)-N-({4-[(4-methylpiperazin-1-yl)amino]-3-nitrophenyl}sulfonyl)benzamide] registered a chromatographic logD of 6.59.
